Test results: publication PMC3989318, “Strong Vaccine-Induced CD8 T-Cell Responses Have Cytolytic Function in a Chimpanzee Clearing HCV Infection” (PLoS ONE, 2014)
Like-named read-outs stand apart in the source and are kept apart here. Where no end group is shown, it is not given here.

Legend:
[1] = system: expanded CD8 T-cells; assay: intracellular cytokine staining of expanded CD8 T-cells after peptide restimulation; type: cell-based, chimpanzee (Pan troglodytes); details: two weeks after the final vaccine boost
Excerpt: For stimulation and expansion of HCV-specific cells, two different NS3-peptide-pools were compiled: NS3vaccine was a mixture of 15-mer peptides with 11 amino acids overlap, covering the NS3-sequence of the vaccine constructs; NS3challenge was a mixture of 15-mer peptides with 11 amino acids overlap covering the NS3-variants observed in the inoculum. Identification of NS3 epitopes within NS3 was first performed via the matrix setup and confirmed in a second assay using individual peptides (peptide-sequences are listed in Table S1).
Cells isolated before infection were expanded and tested for response against peptide-pool NS3vaccine, whereas cells isolated after challenge were tested against peptide-pool NS3challenge. PBMCs isolated at the day of challenge were stimulated in two separate cultures with either NS3vaccine or NS3challenge. […]
The cytokine production profile of HCV-specific T-cell lines was determined by intracellular cytokine staining (ICS) after restimulation with NS3-peptides. […] Cell staining was analyzed on a FACSAria (BD Bioscience) and DIVA software Version 6.1.1.

[2] = target: T1, Patr-A*03∶01 (Pan troglodytes, UniProt P13748); assay: cell-based peptide-binding-competition-assay, Patr-A*03∶01; set-up: species or system chimpanzee (Pan troglodytes); details: competition with 500nM biotinylated indicator peptide […], overnight, europium-streptavidin DELFIA
T1 construct: expressed in transfected cells; host or cells: K562 or 721.221 cells
Protocol: A cell-based peptide-binding-competition-assay was performed as previously described. In this assay, peptides are tested for binding to transfected cell lines expressing chimpanzee class-I molecules, while competing with a biotin-labeled reference-peptide. […] After overnight incubation, excess peptide was removed by washing and indicator-peptide bound to cells was quantified using the DELFIA-system and the Victor3 1420 multilabel counter (Perkin Elmer). The binding affinity of the indicator peptide was verified using its unlabeled peptide as competitor, this is referred to as standardized competitor [15].

[3] = target: T1, Patr-A*03∶01; set-up: method as in PMID 20696916; details: unlabeled indicator peptide as competitor; ref [15]; read-out: IC50 of standardized competitor; cited from earlier work
[4] = MHC class I transfected K562 or 721.221 cells, regression curves of three independent experiments

IRTGVRTITTGGPIT [p64, 15-mer NS3 peptide]
cytokine induction in expanded CD8 T-cells ([1]; Vac1): did not induce cytokine production | cytokine induction in expanded CD8 T-cells ([1]; Vac2): moderate dual IFNγ/IL-2 and IFNγ/TNFa cytokine production

CSCC[C@H](NC(=O)[C@H](Cc1ccc(O)cc1)NC(=O)[C@H](C)NC(=O)CNC(=O)[C@H](Cc1ccccc1)NC(=O)CNC(=O)[C@@H](N)CC(C)C)C(=O)N[C@@H](CO)C(=O)N[C@@H](CCCCN)C(=O)O
IC50 [2, 4]: 0.03 µM

KGGLRPRAG [reference compound]
IC50 ([2]; transfected K562 or 721.221 cells, two individual experiments): 8.2 µM

CC(C)C[C@H](NC(=O)[C@@H](NC(=O)[C@H](C)NC(=O)[C@H](C)N)[C@@H](C)O)C(=O)NCC(=O)N[C@@H](Cc1ccccc1)C(=O)NCC(=O)N[C@@H](C)C(=O)N[C@@H](Cc1ccc(O)cc1)C(=O)O
IC50 [2, 4]: 0.2 µM

VAATLGFGAYMSKAH [p59]
IC50 [2, 4]: 0.06 µM

standardized competitor peptide of Patr-A*03∶01: unlabeled peptide of the A*03∶01 indicator peptide, used as competitor (ATALECVYK; Unlabeled: no biotin on Cys6, which carries biotin in the indicator form)
IC50 [3]: 1.5 µM
